Source: patent US9688653B2, “Ethoxyphenyl thienyl compounds and methods for the treatment of bacterial infections” (Duke University, priority 2013, dated 2017)
pIC50: −log10 of the molar value.

What was measured:
E. coli K1 strain UTI89 [1] = experiment: microbe, parasite or virus in culture
Description: The ability of the […] to bind to bacterial capsule, infect, and lyse E. coli UT189 was used as the primary assay to identify the effects of screened compounds on bacterial capsule formation. The phenotypic end-point assay measured the fluorescence generated by cellular processing of Alamar Blue as a direct indicator of cell viability. A total of […] compounds were screened using the primary assay. […] Hits were further evaluated using […] secondary assays for alternative measurement of compound-induced reduction in bacterial capsule formation (secondary assays 1 and 2) and specificity (secondary assays 3 and 4). Confirmed actives with an SI>5 were further investigated and subjected to chemical optimization, followed by secondary assay evaluation. Secondary assays more closely characterized the ability of the compounds to reduce bacterial capsule formation and can be used to examine the mechanism of action of the compounds. The combination of primary assay (to measure capsule reduction), counter assay (for general eukaryotic cell toxicity) and secondary assay (to measure reduction in capsule formation and specificity) were combined to allow a determination of probe efficacy, selectivity, and specificity.
A. Primary Assay: Screening for Inhibitors of Bacterial Capsule Biogenesis.
Primary assay: An end-point assay to measure the amount of K1 phage-induced bacterial cell lysis was employed to determine the compound effect on capsule biogenesis. K1 bacteriophage specifically binds the bacterial capsule during the initial stages of infection. Bacteria without capsule cannot be infected and lysed by the bacteriophage. […] A total of 338,740 compounds were screened at 100 μM in the primary screen Inhibition of phage lysis was calculated relative to the mean of the bacterial (positive) control on each microtiter plate. […] For calculation of S/B/Z value, and CV, the following formulae (in which SD stands for standard deviation) were used: S/B=mean signal/mean background; Z=1-3SD of sample+3SD of control mean of sample−mean of control; % CV=(SD mean signal/mean signal)×100.
IC50 values were calculated using a 4 parameter Levenburg-Marquardt algorithm, with the maximum and minimum locked at 0 and 100 respectively.
Primary assay: The primary assay was conducted in the 1,536 well plate format. Bacterial cultures of E. coli K1 strain UTI89 (cystitis isolate) and isogenic capsule mutant strains (as controls for phage infection) were grown and prepared at the screening center immediately prior to use. Overnight starting cultures of UTI89 were grown at 37° C., and inoculated into 1 liter of LB (starting OD600˜0.03), which was sufficient for screening 40 plates (including ˜10% waste) and ˜40,000 compounds as single points.
Control wells contained UTI89 (wt K1) with 0.5% DMSO as a simulated positive control; UTI89 with 0.5% DMSO and tetracycline for a negative growth control; and media plus vehicle control. 50 mL of LB Broth was inoculated with stock 150 μL E. coli UT189 and grown overnight at 37° C. The next day, cultures were diluted 1:75 in 1 L of LB Broth containing 0.5% DMSO. 3 μL of this culture was added to each plate well, and plates were incubated, inverted, at 37° C. for 2 hr. The K1F bacteriophage stock was diluted 1:8 in LB Broth containing 0.5% DMSO, and 1.5 μL of diluted phage (or media only) was added to the pre-plated test compound wells and appropriate control wells. The plates were centrifuged briefly, and then were incubated, inverted, at 37° C. for an additional 2 hr. Afterward, Alamar Blue reagent (Invitrogen, #DAL1100) was diluted 1:2 with LB broth and 1 μL was added to each plate well.

[2] = Cytotoxicity counterscreen, CellTiter Glo, 72 hr; assay type: cell-based, human; settings: human, bladder carcinoma 5637 cells (ATCC HTB-9), five probe analogues
Experimental: (§1) B. Counterscreen: Cytotoxicity Screening for Potential Inhibitors of Bacterial Capsule Biogenesis.
(§2) Purpose: This cell-based assay measures the cytotoxicity of compounds in bladder carcinoma 5637 cells using luminescent cell viability assay readout.
(§3) Cytotoxicity assay: The cytotoxicity assay was performed as described in Section 6: Appendix. Hit cytotoxicity and the 50% toxic concentration (CC50) was determined and compared to the IC50 to calculate the selectivity index.
(§4) Assay Description: Cytotoxicity: Dose response testing (dose range=300-0.58 μM) established the hit cytotoxicity data. Compounds were plated in 384-well microplates in a stacked dose response format using the same doses used in the efficacy dose response. Bladder carcinoma 5637 cells were added to the compounds, and 72 hr later cell viability was measured using CellTiter Glo (38). Hit cytotoxicity and the 50% toxic concentration (TC50) was determined and compared to the IC50 to calculate the therapeutic index. Test compounds are serially diluted in a plate to plate matrix or stacked plate matrix. All 320 compounds in a source plate are diluted together resulting in a 10 point dose response dilution series. It is visualized as a serial dilution series proceeding vertically through a stack of plates with the high dose plate on top and the low dose plate on the bottom.
(§5) Control Drug: Hyamine was used as a positive cytotoxic control. All wells contained 0.5% DMSO.
(§6) Preparation of Bladder carcinoma 5637 cells: Cells are harvested and resuspended to 80,000 cells per ml in Complete DMEM/F12®.
(§7) Endpoint Read: Following the three day incubation period, the assay plates were equilibrated to room temperature for 30 min and an equal volume (30 μL) of Cell Titer-Glo® reagent (Promega Inc.) is added to each well using a WellMate™ (Matrix, Hudson, N.H.) and plates are incubated for an additional 10 min at room temperature. At the end of the incubation, luminescence is measured using a Perkin Elmer Envision™ multi-label reader (PerkinElmer, Wellesley, Mass.) with an integration time of 0.1 s.
(§8) Cytotoxicity. Testing was performed essentially as previously described. Concentration-response testing was performed over a range 0.58-300 μM in a […] well plate format. Bladder carcinoma 5637 cells (ATCC HTB-9) were added to the compounds, and 72 hrs later cell viability was measured using CellTiter Glo (Promega). The 50% toxic concentration (TC50) was determined and compared to the IC50 to calculate the therapeutic index. Hyamine was used as a positive cytotoxic control. All wells contained 0.5% DMSO.

E. coli K1 strain UTI89 [3] = experiment: Secondary assay 2: T7 phage-mediated lysis assay; assay type: cell-based, Escherichia coli; settings: read-out: T7 phage IC50
Description: D. Secondary Assay 2: Screening for Inhibitors of Bacterial Capsule Biogenesis—T7 Lysis Inhibition
Purpose: This secondary assay measures the compound mechanistic specificity for inhibition of bacterial capsule formation and excludes inhibitors of phage replication using a different bacteriophage (T7). In this assay, an increase in phage-induced lysis correlates to a decrease in capsule formation.
Purpose: This secondary assay measures the compound mechanistic specificity for inhibition of bacterial capsule formation using a different bacterial phage (T7). In this assay, an increase in phage-induced lysis correlates to a decrease in capsule formation.
Assay Description: T7 phage-mediated lysis assay: This assay determined if the mechanism of action of the compound is inhibition of phage infectivity or replication. The T7 phage has a nearly identical genome to K1F, without encoding an endosialidase. Its cycle of replication is similar to that of K1F as well. However, T7 entry into E. coli is inhibited by K capsules. This secondary assay was conducted in the 96 well plate format. […] Compounds were added in quadruplicate to plates in a concentration dependent manner in the range of 100-0.39 μM, followed by addition of 100 μL of bacterial culture. 1% DMSO (final well concentration) was included. The plates were tape sealed and shaken vigorously for 1.5 hr. An initial OD600 reading was measured to identify compounds that cause growth retardation or bacterial killing in the absence of phage. Next, T7 phage (5 μL) was added to all of the test wells. The plates were resealed and shaken vigorously at 37° C., and measurements of OD600 for phage-mediated lysis were taken after 3 hr. True inhibitors of capsule yielded bacteria that were susceptible to T7 phage and lysed within 2 hr of the addition of phage. […] The positive control drug C7 (100 μM final well concentration) was used in this screen.
T7 phage counter assay. This secondary assay was performed as previously described and was used to distinguish compounds with phage inhibitory effects from true polysaccharide capsule inhibitors. […] Thus, the presence of a capsule inhibits T7-mediated lysis. In this assay, an increase in phage-induced lysis correlates to a decrease in capsule formation. True inhibitors of capsule yielded bacteria that were susceptible to T7 phage and lysed within 2 hr of the addition of phage. […] The positive control molecule C7 (100 μM final well concentration) was used in this screen.

[4] = test system: Bladder carcinoma 5637 cells; experiment: Cytotoxicity counterscreen, CellTiter Glo, 72 hr; assay type: cell-based, human
Experimental: as §1, §2, §3, §4, §5, §6, §7, §8

[5] = read-out: K1 phage IC50, first round of synthetic analogues, n = 3
[6] = first round of synthetic analogues, n = 2
[7] = read-out: K1 phage IC50, second round of synthetic analogues, n = 3
[8] = second round of synthetic analogues, n = 2
[9] = read-out: K1 phage IC50, purchased analogue series, n = 3
[10] = purchased analogue series, n = 2

SMILES	pIC50 (E. coli K1 strain UTI89 [1]; [5])	pIC50 [4]	pIC50 (E. coli K1 strain UTI89 [3]; [6])	other results
O=C(Nc1cc(-c2ccc(C(F)(F)F)cc2)sc1C(=O)O)c1cc2ccccc2o1 [CID 53470417, 3-(Benzofuran-2-carboxamido)-5-(4-(trifluoromethyl)phenyl)thiophene-2-carboxylic acid]	–	–	–	pIC50 (E. coli K1 strain UTI89 [1]; Escherichia coli, read-out: K1 phage IC50, five probe analogues): < 4.00; IC50 at 72 h [2]: 72.1 µM; pIC50 (E. coli K1 strain UTI89 [3]; Escherichia coli, five probe analogues): 4.85
O=C(Nc1cc(-c2ccc(OC(F)(F)F)cc2)sc1C(=O)O)c1ccc(Br)o1 [compound 53495057]	5.19	4.47	5.93	–
COc1ccc(-c2cc(NC(=O)c3cc4ccccc4o3)c(C(=O)O)s2)cc1 [compound 53470443]	< 4.00	4.35	5.08	–
O=C(O)c1sc(-c2ccc(C(F)(F)F)cc2)cc1NC(=O)c1c(F)cccc1F [compound 53470440]	4.63	4.35	5.42	–
CC(C)c1ccc(-c2cc(NC(=O)c3cc4ccccc4o3)c(C(=O)O)s2)cc1 [compound 53470434]	4.37	4.33	5.57	–
O=C(O)c1sc(-c2ccc(OCCC(F)(F)F)cc2)cc1NC(=O)c1c(F)cc(F)cc1F [compound 56643010]	–	4.20	–	pIC50 (E. coli K1 strain UTI89 [1]; [7]): 5.51; pIC50 (E. coli K1 strain UTI89 [3]; [8]): > 6.20
CC(C)c1ccc(-c2cc(NC(=O)c3ccc(Br)s3)c(C(=O)O)s2)cc1 [compound 53470432]	< 4.00	4.48	5.56	–
CCCc1ccc(-c2cc(NC(=O)c3c(F)cccc3F)c(C(=O)O)s2)cc1 [compound 56643016]	–	4.26	–	pIC50 (E. coli K1 strain UTI89 [1]; [7]): 5.58; pIC50 (E. coli K1 strain UTI89 [3]; [8]): > 6.20
CCOc1ccc(-c2cc(NC(=O)c3cc4ccccc4o3)c(C(=O)O)s2)cc1 [compound 53470427]	< 4.00	3.71	5.56	–
O=C(Nc1cc(-c2ccc(OCCCC(F)(F)F)cc2)sc1C(=O)O)c1ccc(Br)o1 [compound 56643008]	–	4.41	–	pIC50 (E. coli K1 strain UTI89 [1]; [7]): 5.75; pIC50 (E. coli K1 strain UTI89 [3]; [8]): > 5.60
CCOc1ccc(-c2cc(NC(=O)c3ccc(Br)s3)c(C(=O)O)s2)cc1 [compound 53470415]	4.77	4.30	5.48	–
Cc1ccc(-c2cc(NC(=O)c3c(F)cccc3F)c(C(=O)O)s2)cc1 [compound 53470422]	4.40	4.24	5.62	–
O=C(O)c1sc(-c2ccc(OCCC(F)(F)F)cc2)cc1NC(=O)c1c(F)cccc1F [compound 56643020]	–	4.16	–	pIC50 (E. coli K1 strain UTI89 [1]; [7]): 6.08; pIC50 (E. coli K1 strain UTI89 [3]; [8]): > 7.81
O=C(Nc1cc(-c2ccccc2)sc1C(=O)O)c1cccc(Cl)c1 [compound 23602077]	–	4.36	–	pIC50 (E. coli K1 strain UTI89 [1]; [9]): 4.07; pIC50 (E. coli K1 strain UTI89 [3]; [10]): 4.46
O=C(Nc1cc(-c2ccccc2)sc1C(=O)O)c1cc2ccccc2o1 [compound 17548073]	–	3.78	–	pIC50 (E. coli K1 strain UTI89 [1]; [9]): < 4.00; pIC50 (E. coli K1 strain UTI89 [3]; [10]): 5.17
CC(C)(C)c1ccc(-c2cc(NC(=O)c3cc4ccccc4o3)c(C(=O)O)s2)cc1 [compound 53470424]	< 4.00	4.46	5.55	–
O=C(O)c1sc(-c2ccc(OCC(F)(F)F)cc2)cc1NC(=O)c1c(F)cccc1F [compound 56643002]	–	4.12	–	pIC50 (E. coli K1 strain UTI89 [1]; [7]): 5.54; pIC50 (E. coli K1 strain UTI89 [3]; [8]): > 6.20
CC(C)(C)c1ccc(-c2cc(NC(=O)c3c(F)cccc3F)c(C(=O)O)s2)cc1 [compound 53470433]	4.94	4.46	5.79	–
CC(C)(C)c1ccc(-c2cc(NC(=O)c3cccc(F)c3)c(C(=O)O)s2)cc1 [compound 53470435]	4.70	4.68	5.57	–
O=C(O)c1sc(-c2ccccc2)cc1NC(=O)C1CCCC1 [compound 16393058]	–	3.77	–	pIC50 (E. coli K1 strain UTI89 [1]; [9]): < 4.00; pIC50 (E. coli K1 strain UTI89 [3]; [10]): 4.25
CC(C)c1ccc(-c2cc(NC(=O)c3c(F)cccc3F)c(C(=O)O)s2)cc1 [compound 53470439]	5.15	4.49	5.90	–
O=C(Nc1cc(-c2ccc(C(F)(F)F)cc2)sc1C(=O)O)c1ccc(Br)s1 [compound 53470428]	< 4.30	4.41	4.85	–
[N-]=[N+]=NCCOc1ccc(-c2cc(NC(=O)c3c(F)cccc3F)c(C(=O)O)s2)cc1 [compound 56643025]	–	3.56	–	pIC50 (E. coli K1 strain UTI89 [1]; [7]): 4.76; pIC50 (E. coli K1 strain UTI89 [3]; [8]): > 6.20
